Our source for the IC50 values is PMC11375437, “Selective labelling of GBA2 in cells with fluorescent β-D-arabinofuranosyl cyclitol aziridines” (Chemical Science, 2024).

The test has as its target T1, GBA3 (Homo sapiens, UniProt Q9H227).
T1 construct: expressed in transfected cells; host or cells: HEK293T GBA1/GBA2 KO, GBA3 overexpressed
T1 sequence (Q9H227 1-469): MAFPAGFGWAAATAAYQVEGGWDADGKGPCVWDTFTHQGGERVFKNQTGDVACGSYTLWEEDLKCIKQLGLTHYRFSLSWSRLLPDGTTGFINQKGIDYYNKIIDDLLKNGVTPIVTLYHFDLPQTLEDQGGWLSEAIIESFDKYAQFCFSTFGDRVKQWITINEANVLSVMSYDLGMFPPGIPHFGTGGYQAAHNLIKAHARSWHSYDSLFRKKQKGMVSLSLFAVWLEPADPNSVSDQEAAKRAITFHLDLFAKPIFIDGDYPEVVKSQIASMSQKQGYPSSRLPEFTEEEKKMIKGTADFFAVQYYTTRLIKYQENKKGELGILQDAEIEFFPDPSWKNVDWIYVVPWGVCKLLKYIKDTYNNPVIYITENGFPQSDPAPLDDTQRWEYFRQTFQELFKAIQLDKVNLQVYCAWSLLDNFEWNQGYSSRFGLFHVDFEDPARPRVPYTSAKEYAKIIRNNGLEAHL
Nature of the test: 4MU fluorogenic substrate assay for apparent IC50, GBA3. The format is biochemical. To be noted: 30 min pre-incubation, 4MU-β-D-Glc. The text has this: To identify an ABP that selectively labels human GBA2 over GBA1 and GBA3, a library of cyclophellitol-based ABPs with varying configurations (ESI Fig. S1 ^†) was screened for their selectivity towards human retaining β-glucosidases. For this purpose, we initially assessed the inhibition properties of the compounds using recombinant human GBA1 (rhGBA1, imiglucerase), lysates of cells overexpressing GBA2 or GBA3 (both in combination with knockout of the other retaining β-glucosidases). In a preliminary screen, enzymes were pre-incubated for 30 min with the tested compounds, followed by the addition of the fluorogenic substrate, 4MU-β-D-Glc, and subsequent quantification of released fluorescent 4MU after 30 minutes. This screening brought our attention to a new set of β-D-Araf cyclitol aziridines as potential GBA2 inhibitors. […] On the other hand, the biotin-tagged β-D-Araf compound 6 is a poor inhibitor of all three glucosidases (apparent IC50 > 8 μM). Arabinofuranosyl cyclitol 12–20 with various configurations (α-L-Araf and β-L-Araf) were also evaluated (ESI Fig. S1 ^†).
Recombinant human GBA1 (rhGBA1, Imiglucerase) was kindly provided by Sanofi Genzyme (Cambridge, MA, USA). 4-Methylumbelliferyl-β-D-glucopyranoside substrates were purchase from Glycosynth (Warrington Cheshire, UK). Protein concentration was measured using the Pierce BCA assay kit (Thermo Fisher Scientific, Waltham, MA, USA). Harvested cells (cell pellets), cell lysates and tissue homogenates not used directly were stored at -80 °C.
HEK293T (CRL‐3216™) cells were purchased from ATCC (Manassas, VA, USA). HEK293T cells were cultured in DMEM medium (Sigma‐Aldrich), supplied with 10% (v/v) FCS, 0.1% (w/v) penicillin/streptomycin and 1% (v/v) Glutamax, under 37 °C and 5% or 7% CO2. […]
2.3 Generation of cells genetically modified for β-glucosidase expression For overexpression of the different β-glucosidases, "wildtype" HEK293T cells, HEK293T cells with GBA2 knockout (KO) or HEK293T cells with both GBA1 and GBA2 KO were used, following by the overexpression (OE) of targeted β-glucosidases using the constructs as described in references.1,2 Either GBA2 or GBA3 were overexpressed in GBA1/GBA2 KO HEK293T (generated by the CRISPR/Cas9 method2) to generate GBA1/2 KOs with GBA2 (or GBA3) for overexpression in HEK293T cells as indicated, or using "wildtype" HEK293T cells containing endogenous GBA1 and GBA2 to overexpress both GBA2 and GBA3, these were generated as described in our previous report.1,2 […]
Cells were cultured with the method described above to 80-90% confluency, and were isolated, washed with Dulbecco′s phosphate buffered saline (PBS) and subsequently collected using the following method.3 HEK293T and RPE-1 cells were easily detached from the culture plate by trypsin treatment after which some DMEM medium was added. The cells were collected by pipetting and DMEM medium was removed by centrifuging. The cells were washed with cold PBS three times, after which they were centrifuged to remove PBS and then stored at –80 °C for further use or lysed in potassium phosphate buffer (K2HPO4-KH2PO4, 25 mM, pH 6.5, supplemented with 0.1% (v/v) Triton X-100 and protease inhibitor cocktail (EDTA-free, Roche, Basel, Switzerland)) by sonication with a Polytron PT 1300D sonicator (Kinematica, Luzern, Switzerland). After sonication, lysed mixtures were centrifuged at 10,000 x g for 3 min at 4°C, and the supernatants where desired β-glucosidases exist were used for the experiment.
2.5 4MU fluorogenic substrate assay for apparent IC50 determination
4MU fluorogenic substrate assays (using recombination human rhGBA1 or lysates of HEK293T cells) were conducted in 96-well plates at 37 °C. Samples were diluted with McIlvaine buffer (150 mM citric acid-Na2HPO4) to a final volume of 25 μL, at the appropriate pH for each enzyme. Assays were performed by incubating the samples with 100 μL 4-methylumbelliferyl-β-D-glucopyranoside substrate diluted in McIlvaine buffer for a period of 30 min. […]

Setting [1] is: GBA1/GBA2 KO GBA3 OE HEK293T cell lysate, pH 6.0, n = 3 for β-D-Araf, n = 1 for α-L-Araf and β-L-Araf.

Regarding `CC1=CC(C)=[N+]2C1=C(CCCCc1cn(CCCCCCCCN3[C@@H]4[C@H](CO)[C@@H](O)[C@H](O)[C@@H]43)nn1)c1c(C)cc(C)n1[B-]2(F)F` (some centres unmarked) [ABP 3], the IC50 under setting [1] is over 10 µM.

For the compound `COc1ccc(C2=[N+]3C(=C(CCCCc4cn(CCCCCCCCN5[C@@H]6[C@H](CO)[C@@H](O)[C@H](O)[C@@H]65)nn4)c4ccc(-c5ccc(OC)cc5)n4[B-]3(F)F)C=C2)cc1` (some centres unmarked) [ABP 4], the half-maximal inhibitory concentration (IC50) under setting [1] was over 10 µM.

Take `CN1/C(=C/C=C/C=C/C2=[N+](CCCCCC(=O)NCc3cn(CCCCCCCCN4[C@@H]5[C@H](CO)[C@@H](O)[C@H](O)[C@@H]54)nn3)c3ccccc3C2(C)C)C(C)(C)c2ccccc21` (some centres unmarked) [ABP 5]: the IC50 under setting [1] is 1.52 ± 0.159 µM.

Take `O=C(CCCC[C@@H]1SC[C@@H]2NC(=O)N[C@@H]21)NCc1cn(CCCCCCCCN2[C@@H]3[C@H](CO)[C@@H](O)[C@H](O)[C@@H]32)nn1` (some centres unmarked) [ABP 6]: the concentration for half-maximal inhibition (IC50) was over 8 µM. Moreover, the half-inhibitory concentration (IC50) under setting [1] amounted to 10.3 ± 1.9 µM.

For the compound `OC[C@@H]1[C@@H](O)[C@H](O)[C@@H]2N[C@H]12` [Compound 1, β-D-Arabinofuranosyl cyclitol aziridine], the 50% inhibitory concentration (IC50) was over 50 µM. Moreover, the IC50 under setting [1] is over 50 µM.

Take `[N-]=[N+]=NCCCCCCCCN1[C@@H]2[C@H](CO)[C@@H](O)[C@H](O)[C@@H]21` (stereo partly drawn) [Compound 2, β-D-arabinofuranosyl cyclitol aziridine-azidooctyl]: the IC50 under setting [1] is 8.15 µM.

As usually defined, the IC50 is the point on the concentration scale where inhibition reaches its midpoint.
